Here are results for one compound from ChEMBL document CHEMBL5154791, “Optimization of a Pyrimidinone Series for Selective Inhibition of Ca2+/Calmodulin-Stimulated Adenylyl Cyclase 1 Activity for the Treatment of Chronic Pain” (J Med Chem, 2022).

A short description of series [1]: Apparent permeability in MDCK-II cells. The format is ADME, cell-based, Canis lupus familiaris. Particulars: dog.
The target in series [2] is Insulin receptor (Homo sapiens) (UniProt P06213). The experiment in a line: Inhibition of human recombinant IRK assessed as inhibition of phosphorylation activity at 10 uM using 33P-labeleled peptide substrate by radiometric scintillation counting assay relative to control.
A further series deals with HEK293. The experiment in a line: Cytotoxicity against HEK293 cells assessed as reduction in cell viability at 30 uM incubated for 1 hr by cell titer glo assay. The format is toxicity, cell-based. Particulars: human, hek293, 1 h. On the technique in general: ATP-based viability assays read luminescence as a measure of living cells.
Another series concerns the target Adenylate cyclase type 8 (Homo sapiens, UniProt P40145). Nature of the series: Inhibition of Ca2+/ CAM stimulated human AC8 expressed in AC3 and AC6-knockout HEK293 cells assessed as A23187 stimulated cAMP accumulation at 10 uM incubated for 30 mins followed by […] in presence of IBMX for 1 hr by HTRF assay relative to control. The format is cell-based. Particulars: time 90.0 min.

The target in series [3] is Voltage-gated inwardly rectifying potassium channel KCNH2 (Homo sapiens, UniProt Q12809). Nature of the series: Displacement of [3H]astemizole from human ERG expressed in HEK293 cell membrane at 10 uM by Radiometric displacement assay relative to control. Particulars: hek293, 10 µM. The format is toxicity, cell membranes. (In general: Loss of bound radioactivity is the signal in a displacement assay; it reports binding, not function.)

A short description of series [4]: Thermodynamic solubility of the compound in PBS at pH 7.4. The format is physicochemical. Particulars: read-out: Therm_solubility.
For a further series, the target named is T1, CYP1A2 (Homo sapiens, UniProt P05177).
T1 sequence (P05177 whole entry): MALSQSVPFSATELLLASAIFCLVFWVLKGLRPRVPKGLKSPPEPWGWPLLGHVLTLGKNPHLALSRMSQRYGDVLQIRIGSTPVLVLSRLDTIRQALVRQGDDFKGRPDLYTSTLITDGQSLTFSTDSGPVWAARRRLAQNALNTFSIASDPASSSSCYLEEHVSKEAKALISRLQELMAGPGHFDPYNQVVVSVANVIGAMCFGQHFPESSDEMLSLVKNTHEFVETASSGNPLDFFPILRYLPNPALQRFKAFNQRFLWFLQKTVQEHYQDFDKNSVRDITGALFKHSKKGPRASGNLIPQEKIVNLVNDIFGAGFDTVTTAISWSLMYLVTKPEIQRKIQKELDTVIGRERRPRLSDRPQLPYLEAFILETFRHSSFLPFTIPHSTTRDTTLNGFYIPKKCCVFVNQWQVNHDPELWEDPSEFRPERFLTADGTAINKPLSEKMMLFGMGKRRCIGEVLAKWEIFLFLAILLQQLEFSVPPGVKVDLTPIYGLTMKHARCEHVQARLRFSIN
The experiment in a line: Inhibition of CYP1A2 (unknown origin) at 10 uM relative to control. The format is ADME.

The next series concerns the target CYP2C19 (Homo sapiens, UniProt P33261). The experiment in a line: Inhibition of CYP2C19 (unknown origin) at 10 uM relative to control. The format is ADME.
Another series concerns the target CYP2C9 (Homo sapiens, UniProt P11712). The experiment in a line: Inhibition of CYP2C9 (unknown origin) at 10 uM relative to control. The format is ADME.
A further series concerns the target CYP2D6 (Homo sapiens, UniProt P10635). The experiment in a line: Inhibition of CYP2D6 (unknown origin) at 10 uM relative to control. The format is ADME.
The target of the next series is CYP3A4 (Homo sapiens, UniProt P08684). The experiment in a line: Inhibition of CYP3A4 (unknown origin) at 10 uM relative to control. The format is ADME.
Series [5] can be described thus: Metabolic stability in human liver microsomes assessed as compound remaining after 15 mins. The format is ADME, Microsome. Particulars: 0.25 h. (Liver microsomes are a subcellular fraction often used to study metabolism.)
Series [6] is described as follows: Metabolic stability in human liver microsomes assessed as compound remaining after 30 mins. Particulars: 0.5 h. The format is ADME, Microsome.
Series [7] is described as follows: Metabolic stability in human liver microsomes assessed as compound remaining after 45 mins. Particulars: 0.75 h. The format is ADME, Microsome.
Series [8] in a line: Metabolic stability in human liver microsomes assessed as compound remaining after 60 mins. Particulars: 1 h. The format is ADME, Microsome.
Series [9] is described as follows: Half life in human liver microsomes. The format is ADME, Microsome.
Series [10] is described as follows: Intrinsic clearance in human liver microsomes. The format is ADME, Microsome.
The test system of a further series is Mus musculus. Nature of the series: Antiallodynic activity against CFA-induced C57BL/6N mouse inflammatory pain model assessed as inhibition of inflammatory mechanical allodynia at 5.6 mg/kg, ip measured at 1 hr post treatment by von Frey test. The format is functional, organism-based.

In brackets after ≈: the same amount, converted by molar mass. Activity calls are given as the source filed them. The rule behind the calls is not given here.

Adenylate cyclase type 8, sequence (P40145 whole entry): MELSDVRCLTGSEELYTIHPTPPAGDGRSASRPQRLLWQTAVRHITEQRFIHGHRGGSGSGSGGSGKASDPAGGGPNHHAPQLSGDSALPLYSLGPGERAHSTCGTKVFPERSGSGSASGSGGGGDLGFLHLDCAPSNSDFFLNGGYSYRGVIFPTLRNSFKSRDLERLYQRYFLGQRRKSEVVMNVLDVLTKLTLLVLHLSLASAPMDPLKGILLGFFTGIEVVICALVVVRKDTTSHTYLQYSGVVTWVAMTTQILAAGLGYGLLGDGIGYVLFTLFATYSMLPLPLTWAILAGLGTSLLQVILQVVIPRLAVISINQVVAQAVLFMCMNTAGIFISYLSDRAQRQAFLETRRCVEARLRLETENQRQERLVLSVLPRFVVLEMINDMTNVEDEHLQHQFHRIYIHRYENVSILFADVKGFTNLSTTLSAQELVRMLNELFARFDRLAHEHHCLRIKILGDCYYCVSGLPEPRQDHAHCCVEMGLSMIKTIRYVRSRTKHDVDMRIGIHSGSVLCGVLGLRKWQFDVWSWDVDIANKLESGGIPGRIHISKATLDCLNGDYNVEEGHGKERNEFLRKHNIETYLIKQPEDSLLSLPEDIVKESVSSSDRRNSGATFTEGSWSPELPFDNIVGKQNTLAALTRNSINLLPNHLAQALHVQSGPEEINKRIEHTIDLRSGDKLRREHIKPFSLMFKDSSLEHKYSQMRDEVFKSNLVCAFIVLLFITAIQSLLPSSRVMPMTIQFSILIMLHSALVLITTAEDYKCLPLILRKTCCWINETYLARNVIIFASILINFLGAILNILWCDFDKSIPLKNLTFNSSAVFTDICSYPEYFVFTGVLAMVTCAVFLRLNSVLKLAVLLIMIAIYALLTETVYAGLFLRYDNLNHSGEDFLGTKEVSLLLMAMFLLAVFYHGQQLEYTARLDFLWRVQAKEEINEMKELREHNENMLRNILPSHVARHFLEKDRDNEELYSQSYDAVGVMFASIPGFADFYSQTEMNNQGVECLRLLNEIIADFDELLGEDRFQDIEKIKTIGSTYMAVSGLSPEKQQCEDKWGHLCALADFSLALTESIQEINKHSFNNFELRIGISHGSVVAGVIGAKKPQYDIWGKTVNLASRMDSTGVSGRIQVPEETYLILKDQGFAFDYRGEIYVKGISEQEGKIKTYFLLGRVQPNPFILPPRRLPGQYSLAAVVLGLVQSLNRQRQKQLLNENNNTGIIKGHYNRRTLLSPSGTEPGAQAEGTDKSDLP
CYP2D6, sequence (P10635 whole entry): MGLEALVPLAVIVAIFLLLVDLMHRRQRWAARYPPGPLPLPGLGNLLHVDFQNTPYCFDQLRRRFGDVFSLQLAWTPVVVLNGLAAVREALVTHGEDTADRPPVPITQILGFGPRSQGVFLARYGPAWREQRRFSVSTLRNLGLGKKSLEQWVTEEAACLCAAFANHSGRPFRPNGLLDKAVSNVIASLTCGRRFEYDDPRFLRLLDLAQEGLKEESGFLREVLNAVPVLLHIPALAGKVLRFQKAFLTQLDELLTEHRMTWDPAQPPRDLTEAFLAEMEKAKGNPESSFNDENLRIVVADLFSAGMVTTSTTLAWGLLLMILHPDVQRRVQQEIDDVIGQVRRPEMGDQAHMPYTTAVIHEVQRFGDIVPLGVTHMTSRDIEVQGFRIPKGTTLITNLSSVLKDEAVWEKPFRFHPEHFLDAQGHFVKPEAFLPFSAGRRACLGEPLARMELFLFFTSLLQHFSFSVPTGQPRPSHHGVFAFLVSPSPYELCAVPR
Insulin receptor (Homo sapiens), sequence (P06213 28-758 limits assumed): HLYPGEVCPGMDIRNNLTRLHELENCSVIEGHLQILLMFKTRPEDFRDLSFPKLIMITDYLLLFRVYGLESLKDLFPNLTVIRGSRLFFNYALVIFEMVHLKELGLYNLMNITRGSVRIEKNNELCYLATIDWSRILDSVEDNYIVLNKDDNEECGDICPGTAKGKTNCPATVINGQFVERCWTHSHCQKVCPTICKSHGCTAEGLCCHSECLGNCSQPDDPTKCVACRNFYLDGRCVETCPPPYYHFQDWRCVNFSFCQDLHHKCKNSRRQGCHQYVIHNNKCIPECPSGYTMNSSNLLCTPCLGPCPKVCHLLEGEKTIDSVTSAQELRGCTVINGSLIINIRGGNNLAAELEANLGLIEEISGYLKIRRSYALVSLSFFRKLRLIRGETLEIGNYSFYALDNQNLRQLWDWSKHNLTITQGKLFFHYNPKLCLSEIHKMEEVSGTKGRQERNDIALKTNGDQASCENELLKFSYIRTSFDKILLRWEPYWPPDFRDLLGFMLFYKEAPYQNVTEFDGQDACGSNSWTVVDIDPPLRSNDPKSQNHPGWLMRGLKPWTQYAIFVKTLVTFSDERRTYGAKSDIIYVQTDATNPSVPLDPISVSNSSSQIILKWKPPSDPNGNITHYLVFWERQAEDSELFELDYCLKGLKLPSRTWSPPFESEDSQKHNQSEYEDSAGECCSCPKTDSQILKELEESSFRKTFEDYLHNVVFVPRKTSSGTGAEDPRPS
Insulin receptor (Homo sapiens), sequence (P06213 763-1382 limits assumed): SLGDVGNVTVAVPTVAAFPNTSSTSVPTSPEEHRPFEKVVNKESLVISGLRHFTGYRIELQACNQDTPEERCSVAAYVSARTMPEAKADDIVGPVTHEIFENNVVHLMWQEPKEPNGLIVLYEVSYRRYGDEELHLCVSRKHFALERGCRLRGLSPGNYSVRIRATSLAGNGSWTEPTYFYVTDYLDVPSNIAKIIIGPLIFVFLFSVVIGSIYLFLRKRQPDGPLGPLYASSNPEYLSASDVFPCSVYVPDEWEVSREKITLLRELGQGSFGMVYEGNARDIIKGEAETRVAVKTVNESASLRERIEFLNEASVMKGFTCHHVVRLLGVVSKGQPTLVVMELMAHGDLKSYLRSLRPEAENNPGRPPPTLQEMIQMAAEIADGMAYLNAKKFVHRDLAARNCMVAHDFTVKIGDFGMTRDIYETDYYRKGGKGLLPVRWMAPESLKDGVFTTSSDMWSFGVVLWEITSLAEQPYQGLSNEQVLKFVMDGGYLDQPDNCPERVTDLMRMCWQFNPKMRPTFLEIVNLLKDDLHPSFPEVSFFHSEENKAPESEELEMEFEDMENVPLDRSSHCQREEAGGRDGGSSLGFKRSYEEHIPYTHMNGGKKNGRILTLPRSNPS
CYP3A4, sequence (P08684 whole entry): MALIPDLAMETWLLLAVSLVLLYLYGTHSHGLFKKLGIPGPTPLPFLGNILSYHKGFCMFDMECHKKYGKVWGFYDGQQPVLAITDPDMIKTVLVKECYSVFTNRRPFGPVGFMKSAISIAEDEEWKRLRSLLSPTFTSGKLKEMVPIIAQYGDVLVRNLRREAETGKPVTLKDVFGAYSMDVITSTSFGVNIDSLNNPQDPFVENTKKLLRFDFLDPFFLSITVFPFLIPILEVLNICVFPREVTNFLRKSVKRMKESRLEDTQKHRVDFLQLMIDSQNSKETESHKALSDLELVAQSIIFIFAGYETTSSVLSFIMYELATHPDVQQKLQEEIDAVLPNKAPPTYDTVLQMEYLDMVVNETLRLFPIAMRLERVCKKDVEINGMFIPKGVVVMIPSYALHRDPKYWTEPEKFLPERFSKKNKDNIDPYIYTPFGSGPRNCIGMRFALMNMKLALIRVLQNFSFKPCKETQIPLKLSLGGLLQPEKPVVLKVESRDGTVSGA
CYP2C9, sequence (P11712 whole entry): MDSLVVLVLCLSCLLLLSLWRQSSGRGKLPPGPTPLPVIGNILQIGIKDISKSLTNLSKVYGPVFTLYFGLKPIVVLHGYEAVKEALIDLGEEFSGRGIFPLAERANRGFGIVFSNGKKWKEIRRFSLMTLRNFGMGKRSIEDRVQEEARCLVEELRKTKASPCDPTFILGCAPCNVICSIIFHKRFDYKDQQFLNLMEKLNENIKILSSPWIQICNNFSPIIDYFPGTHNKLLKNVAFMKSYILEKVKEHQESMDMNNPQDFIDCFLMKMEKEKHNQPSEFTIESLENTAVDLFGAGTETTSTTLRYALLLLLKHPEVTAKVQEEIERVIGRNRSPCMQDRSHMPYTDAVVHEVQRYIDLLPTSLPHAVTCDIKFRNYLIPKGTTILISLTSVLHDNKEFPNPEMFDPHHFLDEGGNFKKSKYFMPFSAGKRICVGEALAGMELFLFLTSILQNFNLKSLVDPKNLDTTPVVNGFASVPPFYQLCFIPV
CYP2C19, sequence (P33261 whole entry): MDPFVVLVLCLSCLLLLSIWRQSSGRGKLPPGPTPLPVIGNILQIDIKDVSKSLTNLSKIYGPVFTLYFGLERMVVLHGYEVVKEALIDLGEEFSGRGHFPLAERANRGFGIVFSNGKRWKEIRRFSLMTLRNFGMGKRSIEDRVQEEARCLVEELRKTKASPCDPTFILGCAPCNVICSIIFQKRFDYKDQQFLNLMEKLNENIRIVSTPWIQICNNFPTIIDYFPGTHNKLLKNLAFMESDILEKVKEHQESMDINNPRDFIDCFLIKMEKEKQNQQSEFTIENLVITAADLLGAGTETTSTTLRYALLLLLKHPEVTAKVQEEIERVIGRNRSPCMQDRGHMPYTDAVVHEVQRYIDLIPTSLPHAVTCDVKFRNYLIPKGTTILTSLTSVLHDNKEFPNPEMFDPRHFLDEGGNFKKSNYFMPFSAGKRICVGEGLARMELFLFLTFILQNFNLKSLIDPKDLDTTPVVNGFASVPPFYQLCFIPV

The Papp is the rate of passage across a membrane or cell layer, normalised by area and donor concentration. For orientation: inhibition means the drop in the measured response relative to a control, in per cent. With `CCc1cc(=O)[nH]c(-n2nc(C)cc2NC(=O)c2cc(C)ccc2F)n1`, in series [1], the Papp was found to be 2.21 ×10⁻⁶ cm/s. For the same compound, the inhibition in series [2] was 64%. In addition, in the series with HEK293, the Activity entry is reported as “Non-Toxic”. Besides, the inhibition entry on Adenylate cyclase type 8 was “Active”. For the same compound, the “inhibition (INH)” value in [3] is 6%. Moreover, the solubility thermodynamic in series [4] was 33.6 µM (≈ 11.9 µg/mL). The inhibition at 10 µM was 8.7% against CYP1A2; 1.8% at CYP2C19; -0.2% at CYP2C9; 0.3% on CYP2D6; -0.9% at CYP3A4. Besides, the Stability in series [5] was 88.3%; in [6], 67.4%; in series [7], 57.5%; in [8], 44.5%. In series [9], this compound showed a t1/2 of 51.2 min. The CLH in [10] is 136.7 µL/min/mg. Moreover, in the series with Mus musculus, the outcome was Active.
